Assay results published in patent US10105384B2, “Nucleic acids targeting TCTP for use in the treatment of chemo- or hormone-resistant cancers” (INSTITUT NATIONAL DE LA SANTE ET DE LA RECHERCHE MEDICALE …, priority 2010, dated 2018).

How the values were obtained:
LNCaP cells = assay: Crystal violet cell growth assay, LNCaP cells; type: cell-based, human
Experimental: In brief, cells were seeded in each well of 12-well microtiter plates (30 000 to 50 000 cells per well) and allowed to attach overnight. To study the effect of TCTP downregulation on apoptosis induced by docetaxel, PC-3 cells were transiently transfected the day after seeding with 5 nM of TCTP siRNA for 48 h or 100 nM of TCTP ASO for 72 h. Cells were then treated with 50 nM of docetaxel and MTT assays were performed after 24 h. To assess the effect of TCTP downregulation on Hsp27 cytoprotection, LNCaP-Mock and -Hsp27 cells were transiently transfected the day after seeding with 5 nM of TCTP siRNA for 48 h. The down- or upregulation of TCTP effect on LNCaP and C4-2 cell viability was realized after transient transfections with 100 nM of TCTP ASO or 0.02 μg/μl of pDEST-TCTP for 72 h and 48 h respectively. Cells were then treated with 1 nM of docetaxel in serum-free media (mimics androgen withdrawal in vitro) and crystal violet assays were performed the day after. Each assay was performed in triplicate.
Finally, in order to assess if TCTP ASO has the same effect on prostatic cancer cell lines expressing the androgen receptor (AR), crystal violet dye was used to examin LNCaP and C4-2 cell growth. LNCaP and C4-2 were treated with 100 nM TCTP or control ASO (FIGS. 15 A and B) for 2 days. Then, LNCaP and C4-2 cells were incubated with 1 nM of docetaxel in serum-free media.

TCTP = assay: ASO sequences screening: TCTP expression by western blot and/or qRT-PCR; type: cell-based, human; conditions: WB and/or qRT-PCR, PC-3 cells overexpressing TCTP
Experimental: Western Blot analysis was performed as described previously (Rocchi et al., 2004, Cancer Res. 64:6595-602) with 1:5000 rabbit anti-Hsp27 polyclonal antibody (Assay Designs, Villeurbanne, France), 1:2000 rabbit TCTP polyclonal antibody (Abcam Inc., Cambridge, UK), 1:250 rabbit anti-MSL1v1 polyclonal antibody (Abcam Inc.), 1:500 mouse anti-ubiquitin monoclonal antibody (Santa Cruz Biotechnology Inc., Heidelberg, Germany) or 1:1000 rabbit anti-caspase-3 polyclonal antibody (Cell Signalling Technology Inc., Danvers, USA). Loading levels were normalized using 1:5000 rabbit anti-glyceraldehyde-3-phosphate dehydrogenase polyclonal (Abcam Inc.) or 1:2500 mouse anti-vinculine monoclonal antibodies (Sigma Chemical Co., St Louis, Mo., USA).
The quantitative reverse transcription polymerase chain reaction (qRT-PCR) analysis was done on a LightCycler detection system (Roche Applied Science, Meylan, France). Expression levels of 18S subunit of the ribosome gene were used as an internal control. First strand cDNA was synthesized from 1 μg of total RNA using random hexamers and expanded by reverse transcriptase according to the manufacturer's instructions (ImProm-II Reverse Transcription System, Promega, Charbonniéres-les-Bains, France), subsequently diluted 1:10 with water, and stored at −20° C. until use. TCTP and 18S polymerase chain reaction (PCR) products were detected by quantitative real time PCR (qRT-PCR) using the SYBR Premix Ex Taq (Takara Bio Inc, St Germain en Laye, France) following the manufacturer's instructions. Five microliters of diluted cDNA template were mixed with 10 μl SYBR Premix Ex Taq (including Taq polymerase, reaction buffer, MgCl2, SYBR green I dye, and deoxynucleotide triphosphate mix) and 0.4 μM forward and reverse primers, in a final volume of 20 μl. The following primers were used: TCTP forward 5′-[…]-3′ (SEQ ID NO: 8) and TCTP reverse 5′-[…]-3′; (SEQ ID NO: 9); 18S forward 5′-[…]-3′ (SEQ ID NO: 10) and 18S reverse 5′-[…]-3′ (SEQ ID NO: 11). After an initial Taq activation for 10 seconds at 95° C., Light Cycler PCR was done using 55 cycles with the following cycling conditions: 95° C. for 5 seconds, 58° C. for 7 seconds, and 72° C. for 14 seconds. Each sample was analyzed in duplicate and the experiment was repeated three times. Results were analyzed using RealQuant data analysis software (Roche, Neuilly-sur-seine, France). The results analysis was done with the 2(-Delta Delta C(T)) Method (Livak K J. et al., 2001; Methods. 25:402-8).
In order to find a sequence ASO having an inhibiting effect on TCTP expression, 30 ASO sequences have been designed 26 of which are shown in table 1. Said 30 sequences cover the TCTP mRNA (accession number NM_003295). Using BLAST program, the specificity of said sequences has been studied. Among said 30 sequences, only 15 sequences have been identified as being specific for TCPT mRNA sequence (see table 1). The effect of said ASO sequences on TCTP expression was tested by western blot analysis (WB) and/or by quantitative reverse transcription polymerase chain reaction (qRT-PCR) on PC-3 cells overexpressing TCTP. WB and qRT-PCR were performed as exposed in example 1.

In the case of “5′-ACCAATGAGCGAGTCATCAA-3′ (phosphorothioate backbone, further chemistry not given here) [ASO10]”, the LNCaP cell growth (LNCaP cells; 100 nM ASO for 2 days) is reported as “considerably decrease”, the “sensitivity to docetaxel and androgen withdrawal” value (LNCaP cells; LNCaP, 100 nM ASO 2 days then 1 nM docetaxel in serum-free media) is reported as “enhance treatments (docetaxel and androgen withdrawal) sensitivity” and the “ability to inhibit TCTP expression” value (TCTP) is reported as “strong ability to inhibit TCTP expression”. For the same substance, the “best ability to inhibit specifically TCTP expression” value (TCTP) was “best ability to inhibit specifically TCTP expression”.
